According to patent US20100226922A1, “SPECIFIC PROTEASE INHIBITORS AND THEIR USE IN CANCER THERAPY” (priority 2006, published 2010):

Key:
[1] = system: EpCAM-negative NIH3T3 control cells; assay: Proliferation of EpCAM-negative NIH3T3 control cells; format: cell-based, murine; settings: treatment with DAPT
Description: (§1) We further investigated the significance of PS activity on EpCAM-mediated growth transformation of two cell types. Murine NIH3T3 transfectants (which were grown and transfected as described in Example 1) that ectopically express EpCAM, and FaDu carcinoma cells that naturally express EpCAM were treated with the DAPT over 4 days. […] Noteworthy, besides its capacity to rescue cells from DAPT-mediated growth inhibition, the expression of EpIC-YFP did even further increase proliferation of EpCAM-expressing FaDu carcinoma cells.

[2] = system: NIH3T3 transfectants that ectopically express EpCAM; assay: EpCAM-mediated growth transformation (cell numbers), NIH3T3 transfectants ectopically expressing EpCAM; format: cell-based, murine
Description: as §1

FaDu carcinoma cells = assay: Proliferation (cell numbers) of FaDu carcinoma cells; format: cell-based, human
Description: as §1, with “cells. Also, siRNA-mediated TACE reduction of proliferation of FaDu cells was tested. […] Modest effects may be explained by the comparatively low transfection efficiency of this cell line (FIG. 3A).” for “cells.”

[3] = system: EpCAM-YFP cleavage in HEK293 cells; assay: EpIC formation (EpCAM cleavage) by immunoblot in HEK293 cells transiently transfected with EpCAM-YFP; format: cell-based, human; settings: for EpIC cleavage / release of EpIC-YFP from EpCAM-YFP: single cells incubated with recombinant EpEX, monitored over time
Text: In the beginning of the study nothing was known about the molecular mechanisms underlying the signalling mechanisms of EpCAM. In order to test for potential EpCAM cleavage, full-length EpCAM was C-terminally fused to the yellow fluorescence protein to generate EpCAM-YFP. Similarly, a potential intracellular domain of EpCAM (EpIC), starting with serine^289, was fused to the YFP moiety to generate EpIC-YFP. For this purpose, EpCAM or EpIC cDNA sequences were cloned into peYFP-N1 (BD Biosciences, Heidelberg Germany). […] HEK293 cells are human embryonic kidney cells, which were cultured in standard DMEM containing 10% fetal calf serum and passaged three times per week. Transfection was carried out with MATra reagent (IBA, Göttingen, Germany) in six-well plates (5×10^5 cells/well) according to the manufacturer's protocol. One microgram of plasmid DNA was transfected per sample for a time period of 24 h. For immunoblot analysis, 1×10^6 cells were lysed in 100 μl lysis buffer (TBS/1% triton and protease inhibitors). Lysates were pre-cleared upon centrifugation (13.000 rpm, 4° C., 10 min), separated upon SDS-PAGE, and transferred onto PVDF membranes (Millipore, Bedford, US). The expression of both proteins was assessed upon immunobloting with EpIC- (A20 or 1144, which are α-EpIC antibodies; Santa Cruz Biotech, USA and Epitomics, USA) and YFP-specific antibodies in combination with horseradish peroxidase (HRP)-conjugated secondary antibodies and the ECL reagent (Amersham Biosciences).
The interaction of EpCAM with PS-2 and TACE indicates an involvement of these proteases in the proteolytic processing of EpCAM. To confirm this, HEK293 cells were transiently transfected with EpCAM-YFP expression plasmid. Briefly, 5×10^5 cells were plated in 6-well plates and transiently transfected 24 h later with 1 μg plasmid DNA using the MATra transfection reagent (IBA, Göttingen, Germany—1 μl reagent per 1 μg DNA). Transiently transfected HEK293 cells were treated with 60 nM of the γ-secretase inhibitor Compound E (Alexis Biochemicals, Germany) over a time period of two days. Proteins were separated by SDS-PAGE (30 mA/gel, 10% polyacrylamid gel), transferred onto PVDF membranes (Millipore, Bedford, US). Cleavage of EpIC was assessed with an EpIC-specific antibody (1144, Epitomics, USA) in a time kinetic. Treatment of transfected cells with compound E led to the reduced formation of EpIC along with the accumulation of intermediate cleavage products of EpCAM with a molecular weight of 33-37 kDa (FIG. 2C). These intermediates most likely represent EpCAM molecules lacking the ectodomain but which were not cleaved at the intracellular site. […] Thus, inhibition of presenilins has an impact on EpCAM signaling capacity.
(§2) Next, HEK293 cells were transiently transfected with EpCAM-YFP, treated with 40 μM TACE inhibitor TAPI-2 (Biomol, Germany) and EpIC formation monitored as described above for the inhibition of presenilin-2. […] Finally, the effect of TACE inhibition on the generation of the EpCAM ectodomain was assessed. HEK293-EpCAM cells were cultured two days in the presence or absence of TAPI-2 (40 μM) and cell-free conditioned supernatants were collected upon centrifugation (13,000 rpm, 10 min, 4° C.). Thereafter, immunoprecipitations were conducted with antibodies specific for EpEX as described above. […] In all cases, EpEX was devoid of the EpIC domain as it no longer reacted with the EpIC-specific antibody. […]

[4] = system: EpCAM ectodomain (EpEX) shedding in HEK293-EpCAM cells; assay: EpCAM ectodomain shedding, immunoprecipitation from conditioned supernatant of HEK293-EpCAM cells; format: cell-based, human; settings: TAPI-2 40 μM, two days, versus vehicle diluent
Description: In a next step, we assessed the existence of a shed ectodomain of EpCAM. Immunoprecipitation was performed with conditioned cell-free supernatants of HEK293-EpCAM and HEK293-control transfectants using antibodies specific for the extracellular (EpEC), i.e. HO.3 (an α-EpEC antibody; kind gift from Dr. Horst Lindhofer, TrionPharma, Munich, Germany) and intracellular (EpIC) domain of EpCAM (see above) essentially as described above. For a positive control, immunoprecipitation was performed in parallel with whole cell lysate of HEK293-EpCAM cells.
as §2

[5] = system: EpEX shedding in FaDu cells; assay: EpEX shedding by FaDu cells expressing endogenous EpCAM; format: cell-based, human; settings: treated with TAPI-2
Description: The soluble ectodomain EpEX was detected in cell-free supernatants FaDu cells (Experiment was carried out as described for HEK293 cells).
Next, HEK293 cells were transiently transfected with EpCAM-YFP, treated with 40 μM TACE inhibitor TAPI-2 (Biomol, Germany) and EpIC formation monitored as described above for the inhibition of presenilin-2. […] Finally, the effect of TACE inhibition on the generation of the EpCAM ectodomain was assessed. HEK293-EpCAM cells were cultured two days in the presence or absence of TAPI-2 (40 μM) and cell-free conditioned supernatants were collected upon centrifugation (13,000 rpm, 10 min, 4° C.). Thereafter, immunoprecipitations were conducted with antibodies specific for EpEX as described above. […] In all cases, EpEX was devoid of the EpIC domain as it no longer reacted with the EpIC-specific antibody. Ectodomain shedding may thus be a basic requirement for the cleavage of EpIC, as is the case for certain other receptors (Medina and Dotti, 2003, Cell Signal 15: 829-841).

[6] = system: TCF/Lef-responsive promoters in HEK293 cells; format: cell-based, human
[7] = target: EpCAM (epithelial cell adhesion molecule), full-length (human) (UniProt P16422); assay: cell-based or functional assay
[8] = target: T1, EpCAM (epithelial cell adhesion molecule), full-length (human, UniProt P16422 24-314); assay: cell-based or functional assay
T1 sequence (looked up): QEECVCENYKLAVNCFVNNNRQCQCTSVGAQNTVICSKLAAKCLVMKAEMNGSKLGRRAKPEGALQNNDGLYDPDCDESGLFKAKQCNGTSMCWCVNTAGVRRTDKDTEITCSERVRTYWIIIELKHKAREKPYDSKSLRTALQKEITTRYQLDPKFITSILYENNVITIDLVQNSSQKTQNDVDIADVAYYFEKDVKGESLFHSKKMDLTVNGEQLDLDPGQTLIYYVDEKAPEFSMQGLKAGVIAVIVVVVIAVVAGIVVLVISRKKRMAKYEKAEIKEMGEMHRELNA

[9] = system: endogenous EpCAM in FaDu cells; assay: EpIC retention in the plasma membrane of isolated FaDu cells treated with EpEX; format: cell-based, human
Description: In search for inducers of EpCAM signaling, we investigated the possibility that EpEX serves as a soluble ligand for EpCAM. EpCAM was described as a homophilic adhesion molecule, which can confer intra- and intercellular adhesion via two distinct, cystein-rich extracellular domains. […] HEK293 cells were plated as single cells, transfected with EpCAM-YFP expression vector, and incubated with recombinant EpEX. EpIC formation was then monitored over time by immunoblotting (see above). […] This observation was further corroborated in carcinoma cells with respect to the cleavage of endogenous EpCAM molecules. […] In the absence of EpEX in the culture medium, a mean of 74% of single cells retained EpIC in the plasma membrane, while only 39% of the cells did so following treatment with EpEX.

[10] = DAPT over 4 days, data not shown
[11] = DAPT plus EpIC-YFP expression (rescue)

## C[C@H](NC(=O)Cc1cc(F)cc(F)c1)C(=O)N[C@H](C(=O)OC(C)(C)C)c1ccccc1 [DAPT, N—[N-(3,5-difluorophenacetyl)-L-alanyl]-(S)-phenyl-glycine t-butyl ester]
[1]
  cell proliferation: remained unaffected
[2]; [10]
  EpCAM-mediated growth transformation (cell numbers): substantially inhibited
[2]; [11]
  cell numbers under DAPT with expression of EpIC-YFP: restored cell numbers to the level of untreated cells
FaDu carcinoma cells; [10]
  EpCAM-mediated growth transformation (cell numbers): substantially inhibited
FaDu carcinoma cells; [11]
  cell numbers under DAPT with expression of EpIC-YFP: restored cell numbers to the level of untreated cells

## CC(C)C[C@H](CC(=O)NO)C(=O)N[C@H](C(=O)N[C@@H](C)C(=O)NCCN)C(C)(C)C [TAPI-2]
[3]; 40 μM TAPI-2
  EpIC cleavage: substantial reduction of EpIC cleavage
  c-Myc induction: decrease in c-Myc induction
  formation of EpCAM intermediates: no effect whatsoever
[4]
  ectodomain shedding in the cell culture supernatant: strong reduction of ectodomain shedding
[5]
  EpEX shedding: significant reduction of EpEX shedding

## [Cl-].[Li+] [lithium chloride]
[6]
  mean induction of TCF/Lef: 2.5 fold

## recombinant EpCAM extracellular domain EpEX (EpEXrec) (from UniProt P16422 24-265) (ligand)
[7]
  single FaDu cells retaining EpIC in the plasma membrane, following treatment with EpEX: 39%
  single FaDu cells retaining EpIC in the plasma membrane, in the absence of EpEX (control): 74%

B1: four and a half LIM domain protein FHL2 (other, human, UniProt Q14192 1-279, looked up)
chain: MTERFDCHHCNESLFGKKYILREESPYCVVCFETLFANTCEECGKPIGCDCKDLSYKDRHWHEACFHCSQCRNSLVDKPFAAKEDQLLCTDCYSNEYSSKCQECKKTIMPGTRKMEYKGSSWHETCFICHRCQQPIGTKSFIPKDNQNFCVPCYEKQHAMQCVQCKKPITTGGVTYREQPWHKECFVCTACRKQLSGQRFTARDDFAYCLNCFCDLYAKKCAGCTNPISGLGGTKYISFEERQWHNDCFNCKKCSLSLVGRGFLTERDDILCPDCGKDI
[8]
  cell numbers at day five of treatment with EpCAM- or FHL2-specific siRNA against control siRNA: 2.5 fold lower

B2: EpEXrec: recombinant EpCAM extracellular domain EpEX (protein)
chain: QEECVCENYKLAVNCFVNNNRQCQCTSVGAQNTVICSKLAAKCLVMKAEMNGSKLGRRAKPEGALQNNDGLYDPDCDESGLFKAKQCNGTSMCWCVNTAGVRRTDKDTEITCSERVRTYWIIIELKHKAREKPYDSKSLRTALQKEITTRYQLDPKFITSILYENNVITIDLVQNSSQKTQNDVDIADVAYYFEKDVKGESLFHSKKMDLTVNGEQLDLDPGQTLIYYVDEKAPEFSMQGLK
[3]
  EpIC cleavage / release of EpIC-YFP from EpCAM-YFP: time-dependent induction of EpIC cleavage
[9]; after treatment with EpEX, 74% in the absence of EpEX
  single cells that retained EpIC in the plasma membrane (mean): 39%
[9]; isolated FaDu cells treated with EpEX
  EpIC immunoreactivity at the site of the plasma membrane: significant loss

B3: heat-treated EpEX: heat-treated recombinant EpCAM ectodomain, used as inactive control (protein, UniProt P16422 24-265, looked up)
extracellular domain: B2 chain
modifications: extracellular domain heat-treated
[3]
  EpIC cleavage / release of EpIC-YFP from EpCAM-YFP: did not result in a release of EpIC-YFP
